From patent publication US20230407243A1, “GENETIC PLATFORM TO INVESTIGATE THE FUNCTIONS OF BACTERIAL DRUG EFFLUX PUMPS” (priority 2022, published 2023)

How the values were obtained:
Assay type in all cases: cell-based, Escherichia coli
EKO-35 araC::emrKY Pore = assay: MIC susceptibility profiling, porinated efflux platform
Procedure: (§1) For genomic integration of the pore, the fhuA ΔC/Δ4L gene and the adjacent gentamicin resistance cassette were amplified using a high-fidelity polymerase and the fhuA_40_Up/gImS_3680_Low primers (Table 4). Integration of the pore gene was performed as described above. The pore gene was introduced into the intergenic region between the glmS and pstS genes, with gene expression under the control of a constitutive promoter (Kearse, M. et al., 2012). Genomic integrations were verified using PCR (Primers: pstS_520_Up/glmS_3680_Low, Table 4). Successful integrations were transformed with pCP20 to remove the gentamicin resistance cassette as previously described. Activity of the pore was confirmed through susceptibility testing with the large antibiotic vancomycin prior to phenotypic profiling and further susceptibility testing.
(§2) Single colonies were used to inoculate 3 mL of LB followed by incubation at 37° C. for 18 h with aeration at 220 rpm. The bacterial cells were harvested by centrifugation and resuspended in phosphate buffered saline (PBS) ([pH 7.4], 137 mM NaCl (Bioshop), 2.7 mM KCl (Bioshop), 10 mM Na2PO4 (Bioshop) and 1.8 mM K2PO4) to an OD600 nm˜1.0, followed by 1/2000 dilution into MHB II.
(§3) To a 384-well microtiter plate (Corning, untreated polystyrene), 500 nL of compound was dispensed, in duplicate, and serially titrated 2-fold using an Echo 550 acoustic liquid dispenser (Labcyte Inc.). […] As a solvent control, 500 nL of DMSO was applied to wells that contained no compound. Using a multichannel pipette, 50 μL of the prepared bacterial inoculum was applied to each well. To enable background correction post-incubation, the OD600 nm was measured (Biotek Synergy Neo2 microplate reader) prior to incubation. The plates were incubated at 37° C. with aeration at 900 rpm for 18 h. The plates were equilibrated to room temperature and the OD600 nm measured using a BioTek Synergy Neo2 microplate reader. Data was analyzed in both Prism (GraphPad, Version 9.2.0) and Microsoft Excel (Version 16.53). Raw data were input into Microsoft Excel and the pre-incubation OD600 nm measurements were subtracted from the post-incubation OD600 nm measurements. These corrected measurements were input into Prism 9 as a grouped analysis. […] All other MIC values were adjusted accordingly and visualized using the single-color scale grouped heat map function. Identification of compound chemical properties was achieved using DataWarrior (Version 5.5.0). Using PubChem, the SMILES chemical notation for each compound was obtained and compiled in Microsoft Excel. The resulting spreadsheet was input into DataWarrior and properties were calculated from the compound chemical structures.

EKO-35 araC::acrEF Pore = assay: as above
Procedure: as §1, §2, §3

EKO-35 araC::macAB Pore = assay: as above
Procedure: as §1, §2, §3

EKO-35 araC::mdtEF Pore = assay: as above
Procedure: as §1, §2, §3

EKO-35 araC::emrKY = assay: MIC susceptibility profiling, efflux platform
Procedure: as §2, §3

EKO-35 araC::acrB = assay: MIC susceptibility profiling, efflux platform
Procedure: as §2, §3

EKO-35 araC::acrBD408A = assay: MIC susceptibility profiling, efflux platform
Procedure: as §2, §3

EKO-35 araC::mdtEF = assay: MIC susceptibility profiling, efflux platform
Procedure: as §2, §3

EKO-35 araC::mdtBC = assay: MIC susceptibility profiling, efflux platform
Procedure: as §2, §3

EKO-35 araC::acrD = assay: MIC susceptibility profiling, efflux platform
Procedure: as §2, §3

EKO-35 araC::emrAB = assay: MIC susceptibility profiling, efflux platform
Procedure: as §2, §3

EKO-35 araC::acrEF = assay: MIC susceptibility profiling, efflux platform
Procedure: as §2, §3

[1] = test system: EKO-35 araC::mexCD (MexCD from P. aeruginosa); assay: MIC susceptibility profiling, efflux platform
Procedure: as §2, §3

EKO-35 araC::macAB = assay: MIC susceptibility profiling, efflux platform
Procedure: as §2, §3

ΔtolC-Pore = assay: microbe, parasite or virus in culture; conditions: technical duplicate
Procedure: as §1, §2, §3

wild-type (WT) K-12-Pore = assay: microbe, parasite or virus in culture; conditions: technical duplicate
Procedure: as §1, §2, §3

[2] = test system: wild-type E. coli K-12 str. BW25113; assay: microbe, parasite or virus in culture; conditions: technical duplicate
Procedure: as §2, §3

E. coli ΔtolC = assay: microbe, parasite or virus in culture; conditions: technical duplicate
Procedure: as §2, §3

E. coli EKO-35 = assay: microbe, parasite or virus in culture
Procedure: as §2, §3

[3] = Table 14A, porinated, technical duplicate
[4] = Table 13B, non-porinated, technical duplicate
[5] = Table 13A, non-porinated, technical duplicate

C[C@H](CCC(=O)NCCS(=O)(=O)[O-])[C@H]1CC[C@H]2[C@@H]3CC[C@@H]4C[C@H](O)CC[C@]4(C)[C@H]3C[C@H](O)[C@]12C.[Na+] [sodium taurodeoxycholate]
250 µg/mL: Minimum inhibitory concentration (EKO-35 araC::emrKY Pore; EKO-35 araC::emrKY Pore, technical duplicate) | Minimum inhibitory concentration (EKO-35 araC::macAB Pore; EKO-35 araC::macAB Pore, technical duplicate) | Minimum Inhibitory Concentration, EKO-35 araC::macAB (EKO-35 araC::macAB; [4]) | Minimum inhibitory concentration (MIC), Pore ΔtolC (ΔtolC-Pore; Table 10, with pore) | Minimum inhibitory concentration, ΔtolC-Pore (ΔtolC-Pore; Table 14A, porinated) | Minimum inhibitory concentration (MIC), ΔtolC (E. coli ΔtolC; Table 10, without pore) | Minimum Inhibitory Concentration, ΔtolC (E. coli ΔtolC; Table 13A, non-porinated)
4 fold: Fold changes of MICs (EKO-35 araC::acrEF Pore; EKO-35 araC::acrEF Pore compared to EKO-35-Pore) | Fold changes of MICs (EKO-35 araC::mdtEF Pore; EKO-35 araC::mdtEF Pore compared to EKO-35-Pore)
increased resistance: efflux pump-mediated resistance vs EKO-35-Pore (EKO-35 araC::acrEF Pore; AcrEF with the pore) | efflux pump-mediated resistance vs EKO-35-Pore (EKO-35 araC::mdtEF Pore; MdtEF with the pore)
1000 µg/mL: Minimum inhibitory concentration, EKO-35 araC::acrEF Pore (EKO-35 araC::acrEF Pore; [3]) | Minimum inhibitory concentration, EKO-35 araC::mdtEF Pore (EKO-35 araC::mdtEF Pore; [3]) | Minimum Inhibitory Concentration, EKO-35 araC::acrB (EKO-35 araC::acrB; [5]) | Minimum Inhibitory Concentration, EKO-35 araC::acrBD408A (EKO-35 araC::acrBD408A; [4]) | Minimum Inhibitory Concentration, EKO-35 araC::mdtEF (EKO-35 araC::mdtEF; [5]) | Minimum Inhibitory Concentration, EKO-35 araC::mdtBC (EKO-35 araC::mdtBC; [4]) | Minimum Inhibitory Concentration, EKO-35 araC::acrD (EKO-35 araC::acrD; [5]) | Minimum Inhibitory Concentration, EKO-35 araC::emrAB (EKO-35 araC::emrAB; [4]) | Minimum Inhibitory Concentration, EKO-35 araC::acrEF (EKO-35 araC::acrEF; [5]) | Minimum Inhibitory Concentration, EKO-35 araC::mexCD [1, 4] | Minimum inhibitory concentration (MIC), Pore K-12 (wild-type (WT) K-12-Pore; Table 10, with pore) | Minimum inhibitory concentration, K-12 (WT)-Pore (wild-type (WT) K-12-Pore; Table 14A, porinated) | Minimum inhibitory concentration (MIC), K-12 ([2]; Table 10, without pore) | Minimum Inhibitory Concentration, K-12 ([2]; Table 13A, non-porinated)
1 fold: Fold changes of MICs (EKO-35 araC::emrKY Pore; EKO-35 araC::emrKY Pore compared to EKO-35-Pore) | Fold changes of MICs (EKO-35 araC::macAB Pore; EKO-35 araC::macAB Pore compared to EKO-35-Pore) | Fold change of MICs (EKO-35 araC::emrKY; EKO-35 araC::emrKY compared to EKO-35) | Fold change of MICs (EKO-35 araC::macAB; EKO-35 araC::macAB compared to EKO-35) | Fold change of MICs (E. coli EKO-35; EKO-35 compared to EKO-35 (reference))
500 µg/mL: Minimum Inhibitory Concentration, EKO-35 araC::emrKY (EKO-35 araC::emrKY; [4]) | Minimum inhibitory concentration (MIC), EKO-35 (E. coli EKO-35; Table 10, without pore, technical duplicate) | Minimum Inhibitory Concentration, EKO-35 (E. coli EKO-35; [5])
2 fold: Fold change of MICs (EKO-35 araC::acrB; EKO-35 araC::acrB compared to EKO-35) | Fold change of MICs (EKO-35 araC::acrBD408A; EKO-35 araC::acrBD408A compared to EKO-35) | Fold change of MICs (EKO-35 araC::mdtEF; EKO-35 araC::mdtEF compared to EKO-35) | Fold change of MICs (EKO-35 araC::mdtBC; EKO-35 araC::mdtBC compared to EKO-35) | Fold change of MICs (EKO-35 araC::acrD; EKO-35 araC::acrD compared to EKO-35) | Fold change of MICs (EKO-35 araC::emrAB; EKO-35 araC::emrAB compared to EKO-35) | Fold change of MICs (EKO-35 araC::acrEF; EKO-35 araC::acrEF compared to EKO-35) | Fold change of MICs ([1]; EKO-35 araC::mexCD compared to EKO-35)
